According to ChEMBL document CHEMBL1201862, “PubChem BioAssay data set” (2004):
The source made the active and inactive calls. Cut-off read from the data, not from the text of the source, for most assays here: actives have a measured EC50 and inactives only a lower limit.

Columns and labels:
[1] = target: T1, RNA-binding protein pos-1 (Caenorhabditis elegans, UniProt G5EF15); test: inhibitors of POS-1/mex-3 RNA binding, dose response, biochemical, fluorescence polarization (AID 1964);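 note: purified POS-1 fused to maltose binding protein made in E. coli; potency of compounds blocking POS-1 binding to fluorescent RNA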
T1 sequence (G5EF15 whole entry): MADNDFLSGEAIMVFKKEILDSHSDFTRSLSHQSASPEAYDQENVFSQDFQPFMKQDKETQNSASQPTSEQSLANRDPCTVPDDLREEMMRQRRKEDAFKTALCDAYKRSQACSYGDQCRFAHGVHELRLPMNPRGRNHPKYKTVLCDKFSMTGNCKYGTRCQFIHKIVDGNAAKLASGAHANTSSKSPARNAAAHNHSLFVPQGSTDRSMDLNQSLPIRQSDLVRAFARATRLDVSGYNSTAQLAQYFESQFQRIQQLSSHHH

[2] = target: T2, Zinc finger protein mex-5 (Caenorhabditis elegans, UniProt Q9XUB2); test: MEX-5/TCR-2 RNA interaction inhibitors, dose response, biochemical, C. elegans, fluorescence polarization (AID 1960)
T2 sequence (Q9XUB2 whole entry): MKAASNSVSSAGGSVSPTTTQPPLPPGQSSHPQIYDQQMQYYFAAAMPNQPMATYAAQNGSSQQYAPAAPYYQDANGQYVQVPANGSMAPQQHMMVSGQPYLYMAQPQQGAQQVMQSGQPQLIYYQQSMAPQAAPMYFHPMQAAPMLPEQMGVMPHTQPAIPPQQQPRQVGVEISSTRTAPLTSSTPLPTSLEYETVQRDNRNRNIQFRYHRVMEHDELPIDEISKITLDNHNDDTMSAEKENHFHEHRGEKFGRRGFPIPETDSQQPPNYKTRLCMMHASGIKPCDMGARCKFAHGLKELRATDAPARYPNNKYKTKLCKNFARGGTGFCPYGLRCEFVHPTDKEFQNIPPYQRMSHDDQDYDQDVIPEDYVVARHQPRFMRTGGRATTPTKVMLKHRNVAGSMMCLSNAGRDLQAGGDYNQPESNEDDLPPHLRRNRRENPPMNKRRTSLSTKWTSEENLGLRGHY

[3] = target: T3, Replicative DNA helicase DnaB (Mycobacterium tuberculosis, UniProt P9WMR3); test: DnaB intein splicing inhibitors, dose response, biochemical, cell-free fluorescence (AID 449749); type: functional
T3 sequence (P9WMR3 whole entry): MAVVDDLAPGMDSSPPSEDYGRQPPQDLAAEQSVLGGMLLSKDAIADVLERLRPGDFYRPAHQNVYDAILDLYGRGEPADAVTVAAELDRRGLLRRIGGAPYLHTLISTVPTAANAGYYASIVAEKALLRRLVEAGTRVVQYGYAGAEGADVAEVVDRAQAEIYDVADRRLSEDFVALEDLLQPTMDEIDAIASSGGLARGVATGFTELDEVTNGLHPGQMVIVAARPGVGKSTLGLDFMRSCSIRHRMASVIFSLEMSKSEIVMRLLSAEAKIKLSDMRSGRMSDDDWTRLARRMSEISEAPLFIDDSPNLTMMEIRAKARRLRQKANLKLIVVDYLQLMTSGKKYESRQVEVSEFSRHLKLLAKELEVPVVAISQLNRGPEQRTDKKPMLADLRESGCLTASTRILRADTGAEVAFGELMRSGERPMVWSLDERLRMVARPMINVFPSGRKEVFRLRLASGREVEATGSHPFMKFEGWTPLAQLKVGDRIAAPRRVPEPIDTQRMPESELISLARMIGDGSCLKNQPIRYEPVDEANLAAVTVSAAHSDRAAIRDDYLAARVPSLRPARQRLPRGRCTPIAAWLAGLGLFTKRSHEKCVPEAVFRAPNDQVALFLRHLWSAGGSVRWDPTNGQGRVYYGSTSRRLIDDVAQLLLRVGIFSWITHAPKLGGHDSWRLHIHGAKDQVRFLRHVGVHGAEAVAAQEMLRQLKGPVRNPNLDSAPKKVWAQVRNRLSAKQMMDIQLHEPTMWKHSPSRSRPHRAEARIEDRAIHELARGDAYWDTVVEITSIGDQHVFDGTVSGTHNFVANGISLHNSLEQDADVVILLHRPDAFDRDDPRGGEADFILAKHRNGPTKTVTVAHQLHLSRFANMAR

Protein RecA = target: T4, Protein RecA (Mycobacterium tuberculosis, UniProt P9WHJ3); test: Fluorescence Cell-Free Homogeneous Dose Retest to Identify Inhibitors of RecA-Intein Splicing Activity. [Related pubchem assays (depositor defined):AID2097, AID2223, AID489010, AID492950]; type: functional
T4 sequence (P9WHJ3 whole entry): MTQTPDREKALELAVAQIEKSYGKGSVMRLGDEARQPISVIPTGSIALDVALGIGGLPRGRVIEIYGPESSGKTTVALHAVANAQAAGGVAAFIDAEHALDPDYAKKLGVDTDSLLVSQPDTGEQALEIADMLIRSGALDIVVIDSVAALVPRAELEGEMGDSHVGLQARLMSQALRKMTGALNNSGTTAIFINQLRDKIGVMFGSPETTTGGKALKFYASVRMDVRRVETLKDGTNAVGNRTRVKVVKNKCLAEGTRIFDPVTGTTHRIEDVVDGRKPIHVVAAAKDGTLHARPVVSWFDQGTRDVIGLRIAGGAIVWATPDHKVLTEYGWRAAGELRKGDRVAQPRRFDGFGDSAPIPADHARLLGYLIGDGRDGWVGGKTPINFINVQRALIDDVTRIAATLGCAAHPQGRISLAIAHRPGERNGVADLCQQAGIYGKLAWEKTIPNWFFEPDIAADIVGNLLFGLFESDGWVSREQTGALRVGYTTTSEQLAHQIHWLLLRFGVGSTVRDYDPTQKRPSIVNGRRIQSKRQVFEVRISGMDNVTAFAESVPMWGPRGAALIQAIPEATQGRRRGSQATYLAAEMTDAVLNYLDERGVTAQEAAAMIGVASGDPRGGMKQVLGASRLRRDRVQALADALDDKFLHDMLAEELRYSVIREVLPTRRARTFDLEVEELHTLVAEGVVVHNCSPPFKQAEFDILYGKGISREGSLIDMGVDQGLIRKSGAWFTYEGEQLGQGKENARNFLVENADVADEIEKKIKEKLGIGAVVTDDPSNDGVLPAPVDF

[4] = target: T5, Heat shock factor protein 1 (Mus musculus, UniProt P38532); test: inhibition of MG132-induced HSE-luciferase signal, confirmation, cell-based, NIH3T3, luminescence, dose retest (AID 2382); type: functional;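 note: NIH3T3 fibroblasts with HSF1-driven luciferase reporter stressed by proteasome inhibitor MG132; luminescence from HSF1-driven luciferase expression after 8 hours of MG132 stress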
T5 sequence (P38532 whole entry): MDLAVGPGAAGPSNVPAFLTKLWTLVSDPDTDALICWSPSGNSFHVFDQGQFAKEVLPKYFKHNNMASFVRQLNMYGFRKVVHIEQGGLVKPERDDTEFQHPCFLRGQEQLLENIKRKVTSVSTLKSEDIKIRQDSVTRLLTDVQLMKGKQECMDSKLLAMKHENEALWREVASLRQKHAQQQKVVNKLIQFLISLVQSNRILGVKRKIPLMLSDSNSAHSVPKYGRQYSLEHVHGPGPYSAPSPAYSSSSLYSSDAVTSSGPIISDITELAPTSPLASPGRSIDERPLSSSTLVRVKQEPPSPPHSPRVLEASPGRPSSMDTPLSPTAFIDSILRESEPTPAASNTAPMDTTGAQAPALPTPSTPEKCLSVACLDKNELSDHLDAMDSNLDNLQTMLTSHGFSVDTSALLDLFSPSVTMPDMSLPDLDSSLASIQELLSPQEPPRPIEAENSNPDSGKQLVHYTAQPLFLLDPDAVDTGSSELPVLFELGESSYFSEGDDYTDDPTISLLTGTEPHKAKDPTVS

[5] = Shn3 3'UTR reporter inhibitors, dose response, cell-based, Clone20 osteoblasts, firefly luciferase, cherry-picked (AID 624132); type: functional;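 note: firefly luciferase luminescence from reporter carrying the Shn3 3'UTR in osteoblasts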
[6] = control 3'UTR Renilla luciferase suppression, dose response, counter-screen for Shn3 inhibitor project, cell-based, Clone20-Shn3RL, cherry-picked (AID 624133); type: functional

| Compound | EC50 [1] | EC50 [2] | AC50 [3] | EC50 (Protein RecA) | also measured |
| --- | --- | --- | --- | --- | --- |
| Cc1cc2oc(=O)c(CC(=O)NCCCO)c(C)c2c2occ(C(C)(C)C)c12 | > 300 µM (not active) | > 300 µM (not active) | – | – | – |
| COC(=O)Cc1n[nH]c2c1C(c1ccc(O)c(OC)c1)C(C#N)=C(N)O2 (configuration not stated) | – | – | 7.51 µM (inconclusive) | 2.88 µM (active) | – |
| Cc1nn(Cc2ccccc2)c2c1C(c1ccccc1)C(C#N)=C(N)O2 (configuration not stated) | – | – | 8.53 µM (active) | 3.64 µM (active) | – |
| CC(C)(c1ccccc1)c1ccc(OCC2CO2)cc1 (configuration not stated) | – | – | 10 µM (active) | 11.9 µM (active) | – |
| O=C(c1ccc(Br)s1)N1CCN(c2ccccn2)CC1 | > 300 µM (not active) | > 300 µM (not active) | – | – | – |
| COc1ccc2c3c([nH]c2c1)C1CC2C(CC(O)C(OC)C2C(=O)O)CN1CC3 (configuration not stated) | > 300 µM (not active) | > 300 µM (not active) | – | – | – |
| Cc1ccc(C2C(C#N)=C(N)Oc3[nH]nc(-c4cccnc4)c32)o1 (configuration not stated) | – | – | 25.6 µM (active) | 6.46 µM (active) | – |
| Cc1ccc([N+](=O)[O-])cc1S(=O)(=O)N(C(=O)c1ccncc1)c1ccc2oc3c(c2c1)CCCC3 | – | – | 42 µM (active) | 10.8 µM (active) | – |
| CCc1cc(C(=O)c2ccc(C)cc2)c(NC(=O)CCl)s1 | – | – | 3.98 µM (active) | 1.07 µM (active) | – |
| Cc1c(-c2nn(C)c(=O)c3ccccc23)oc2ccc(F)cc2c1=O | – | – | 3.86 µM (active) | 2.51 µM (active) | – |
| CN(CC(=O)Nc1ccc(N2CCOCC2)cc1)CC(=O)Nc1cccc(C#N)c1 | – | – | 199 µM (active) | > 380 µM (inactive) | – |
| CC(C)OC(=O)C(C#N)c1nc2ccccc2nc1N1CCCC1 (configuration not stated) | > 300 µM (not active) | > 300 µM (not active) | – | – | – |
| Cc1ccccc1OCC(=O)Nc1ccc2c(c1)C(=O)c1ccccc1C2=O | 36.1 µM (active) | > 300 µM (not active) | – | – | – |
| CC(=O)Nc1ccc(N/C=C/C(=O)c2ccc(C)o2)cc1 | > 300 µM (not active) | > 300 µM (not active) | – | – | – |
| CCCCC1=CC2=C(c3ccco3)C(=O)C(C)(OC(=O)c3ccc(OC)cc3)C(=O)C2=CN1C1CCCC1 (configuration not stated) | 16 µM (active) | 14.3 µM (active) | – | – | – |
| COC(=O)CC1=NN(c2ccccc2)C(=O)C1 | – | – | 13.2 µM (active) | 4.42 µM (active) | – |
| COc1ccc(C2C(C#N)=C(N)OC3=C2C(=O)CC(C)(C)C3)cc1OC (configuration not stated) | > 300 µM (not active) | > 300 µM (not active) | – | – | – |
| COCCN1Cc2cccc(C(=O)Nc3ccc4c(c3)OCCO4)c2C1=O | – | – | – | – | EC50 [4]: 11.6 µM (active); AC50 [5]: 27.1 µM (active); AC50 [6]: 19.1 µM (active) |
